Results from patent US10760110B2, “Antibiotic testing and screening system” (priority 2017, dated 2020).
In brackets after ≈: the same amount, converted by molar mass. Where two headings read alike, the source gives them in different places.

Tests used:
[1] = test system: K. pneumoniae NVT1001 and its GyrA/ParC and ΔramR mutants; assay: Etest MIC of quinolones, GyrA/ParC mutations and AcrAB-TolC overexpression (ΔramR) (Table 10); type: cell-based; conditions: Klebsiella pneumoniae
Excerpt: DNA fragments of the entire gyrA and parC sequences along with their flanking regions were amplified from K. pneumoniae strain NVT1001 using PCR with specific primer pairs and then cloned into the plasmid pUT-KB. The QuikChange site-directed mutagenesis kit (Stratagene) was used to generate mutations in the gyrA and parC genes in the plasmid using the methods described by the manufacturer. For homologous recombination, plasmids containing mutations in the gyrA or parC gene were transformed into E. coli S17-1 λpir^23 via electroporation and mobilized into K. pneumoniae strain NVT1001 via conjugation. Single-crossover strains were selected from BIND plates supplemented with kanamycin (50 mg/L), as the growth of non-K. pneumoniae contaminants is suppressed on BIND plates.^24 After the kanamycin-resistant transconjugants were selected, the insertion of plasmids was verified via PCR. After incubation in 20 mL BHI broth for 6 hours at 37° C. in the absence of kanamycin, the fully grown cultures were spread onto LB agar plates supplemented with 10% sucrose. After the double crossover occurred, the sucrose-resistant and kanamycin-susceptible colonies were selected, and the gene mutations were confirmed via PCR.
(§1) The MICs of antibiotics were determined using the Etest (Biodisk AB, Sweden) according to the manufacturer's instructions. The MICs from the Etest, which fall between standard two-fold dilutions, were rounded up to the next highest two-fold value. The MICs of ceftazidime and cefotaxime against K. pneumoniae NVT1001 harbouring the pACYC177 plasmid with blaOXA-48 were further determined using a broth microdilution test according to the recommendations of the CLSI,^25 and the results were interpreted according to the breakpoints established by the CLSI in 2017.^25 Meanwhile, due to the lack of CLSI breakpoints in 2016 and 2017, the results for cephalothin were interpreted according to the breakpoints established by the CLSI in 2015,^26 and the results for moxifloxacin were interpreted according to the breakpoints established by the EUCAST in 2017.^27

[2] = test system: A. baumannii KW1 and its GyrA/ParC mutants; assay: Etest MIC of quinolones, GyrA and/or ParC mutations (Table 17); type: cell-based; conditions: Acinetobacter baumannii
Excerpt: DNA fragments of the entire adeR, adeS, gyrA and parC along with their flanking regions were amplified from A. baumannii KW1 using PCR with specific primer pairs and then cloned into plasmid pUT-KB. The QuikChange site-directed mutagenesis kit (Stratagene) was used to generate mutations in the adeR, adeS, gyrA and parC genes in the plasmids using the methods described by the manufacturer. For homologous recombination, plasmids containing mutations in the adeR, adeS, gyrA or parC gene were transformed into E. coli S17-1 λpir^23 via electroporation and mobilized into A. baumannii KW1 via conjugation. Single-crossover strains were selected from Luria-Bertani (LB) plates supplemented with cefotaxime (1 μg/ml) and kanamycin ([…]), as the growth of non-A. baumannii contaminants is suppressed by cefotaxime (1 μg/ml). The kanamycin-resistant transconjugants were selected and the insertion of plasmids was verified via PCR. After incubation in 20 ml brain heart infusion (BHI) broth for 6 hours in the absence of kanamycin at 37° C., the fully grown cultures were spread onto LB plates supplemented with 10% sucrose. After the double crossover occurred, the sucrose-resistant and kanamycin-susceptible colonies were selected, and the gene mutations were confirmed via PCR.
as §1

[3] = test system: A. baumannii KW1 strains with β-lactamase plasmids; assay: Etest MIC of β-lactams, extended-spectrum β-lactamase, AmpC β-lactamase or carbapenemase (Table 18); type: cell-based, Acinetobacter baumannii; conditions: production of each carbapenemase tested
Experimental: DNA fragments of the resistance genes along with their flanking regions were amplified from clinical plasmids via PCR with specific primer pairs. The resulting PCR fragments were digested and then cloned into the plasmid pYMAb5 or pYMAb5Tc. The resulting plasmids were then transformed into A. baumannii KW1 via electroporation.
as §1

[4] = test system: K. pneumoniae NVT1001 harbouring the pACYC177 plasmid with blaOXA-48; assay: Broth microdilution MIC (CLSI); type: cell-based; conditions: Klebsiella pneumoniae; broth microdilution test; NVT1001 with pACYC177 blaOXA-48
Experimental: as §1

[5] = test system: K. pneumoniae NVT1001 harbouring the pACYC177 plasmid with blaOXA-48; assay: Mouse peritonitis-sepsis infection model; type: in vivo, Klebsiella pneumoniae; conditions: BALB/c mice, 30 mg/kg
Experimental: Pathogen-free 6- to 8-week-old male BALB/c mice were obtained from the National Laboratory Animal Center (Taiwan) and maintained in the pathogen-free vivarium of the Laboratory Animal Center of National Defense Medical Center (Taiwan). K. pneumoniae NVT1001 harbouring the pACYC177 plasmid with blaOXA-48 was cultured overnight at 37° C. in BHI broth and then diluted (1:100) in fresh BHI broth. The culture was incubated until the mid-exponential growth phase, and the cells were then washed once, resuspended in 0.85% sterile saline, and adjusted to the desired concentrations according to the OD600 value. The concentrations were verified by plating the cells to determine viable counts. […] Meanwhile, antibiotic doses were prepared in 0.85% sterile saline. At 1 hour post-inoculation, antibiotic or 0.85% sterile saline alone was administered as a single subcutaneous injection with a volume of 0.3 mL per dose. The mice were then monitored daily for 7 days to measure survival.

Compound | MIC ([1]; D87N mutant (GyrA D87N)) [µg/mL] | MIC ([1]; D87N/S80I mutant) [µg/mL] | MIC ([1]; NVT1001, read-out: MIC) [µg/mL] | MIC ([1]; S80I mutant (ParC S80I)) [µg/mL] | MIC ([1]; S83F mutant (GyrA S83F)) [µg/mL] | MIC ([1]; S83F/D87N mutant) [µg/mL] | MIC ([1]; S83F/D87N/S80I mutant) [µg/mL] | MIC ([1]; S83F/S80I mutant) [µg/mL] | MIC ([1]; S83I mutant (GyrA S83I)) [µg/mL] | MIC ([1]; S83I/D87N mutant) [µg/mL] | MIC ([1]; S83I/D87N/S80I mutant) [µg/mL] | MIC ([1]; S83I/S80I mutant) [µg/mL] | MIC ([1]; S83L mutant (GyrA S83L)) [µg/mL] | MIC ([1]; S83L/D87N mutant) [µg/mL] | MIC ([1]; S83L/D87N/S80I mutant) [µg/mL] | MIC ([1]; S83L/S80I mutant) [µg/mL] | MIC ([1]; S83Y mutant (GyrA S83Y)) [µg/mL] | MIC ([1]; S83Y/D87N mutant) [µg/mL] | MIC ([1]; S83Y/D87N/S80I mutant) [µg/mL] | MIC ([1]; S83Y/S80I mutant) [µg/mL] | also measured
CCn1cc(C(=O)O)c(=O)c2ccc(C)nc21 [Nalidixic acid, nalidixic acid] | > 256 | > 256 | 4 | 8 | > 256 | > 256 | > 256 | > 256 | > 256 | > 256 | > 256 | > 256 | > 256 | > 256 | > 256 | > 256 | > 256 | > 256 | > 256 | > 256 | MIC ([1]; ΔramR mutant): 32 µg/mL; MIC ([1]; ΔramR/S83I mutant): > 256 µg/mL; MIC ([1]; ΔramR/S83I/D87N/S80I mutant): > 256 µg/mL; MIC ([1]; ΔramR/S83I/S801 mutant): > 256 µg/mL; MIC ([2]; E84K mutant): 12 µg/mL; MIC ([2]; G78C mutant): 12 µg/mL; MIC ([2]; KW1, read-out: MIC): 12 µg/mL; MIC ([2]; S80L mutant): 12 µg/mL; MIC ([2]; S80W mutant): 12 µg/mL; MIC ([2]; S80Y mutant): 12 µg/mL; MIC ([2]; S83L mutant): > 256 µg/mL; MIC ([2]; S83L/E84K mutant): > 256 µg/mL; MIC ([2]; S83L/G78C mutant): > 256 µg/mL; MIC ([2]; S83L/S80L mutant): > 256 µg/mL; MIC ([2]; S83L/S80W mutant): > 256 µg/mL; MIC ([2]; S83L/S80Y mutant): > 256 µg/mL
C[C@H]1[C@H](NC(=O)/C(=N\OC(C)(C)C(=O)O)c2csc(N)n2)C(=O)N1S(=O)(=O)O [Aztreonam] |  |  |  |  |  |  |  |  |  |  |  |  |  |  |  |  |  |  |  |  | effects on the MIC [3]: no increase effects
COc1c(N2C[C@@H]3CCCN[C@@H]3C2)c(F)cc2c(=O)c(C(=O)O)cn(C3CC3)c12 [Moxifloxacin, moxifloxacin] | 0.5 | 1 | 0.125 | 0.25 | 0.5 | 0.5 | 32 | 1 | 1 | 1 | > 32 | 8 | 0.5 | 0.5 | 32 | 2 | 0.5 | 0.5 | 32 | 1 | MIC ([1]; ΔramR mutant): 1 µg/mL; MIC ([1]; ΔramR/S83I mutant): 8 µg/mL; MIC ([1]; ΔramR/S83I/D87N/S80I mutant): > 32 µg/mL; MIC ([1]; ΔramR/S83I/S801 mutant): > 32 µg/mL; MIC ([2]; E84K mutant): 0.19 µg/mL; MIC ([2]; G78C mutant): 0.19 µg/mL; MIC ([2]; KW1, read-out: MIC): 0.19 µg/mL; MIC ([2]; S80L mutant): 0.25 µg/mL; MIC ([2]; S80W mutant): 0.19 µg/mL; MIC ([2]; S80Y mutant): 0.19 µg/mL; MIC ([2]; S83L mutant): 0.75 µg/mL; MIC ([2]; S83L/E84K mutant): 6 µg/mL; MIC ([2]; S83L/G78C mutant): 4 µg/mL; MIC ([2]; S83L/S80L mutant): 6 µg/mL; MIC ([2]; S83L/S80W mutant): 8 µg/mL; MIC ([2]; S83L/S80Y mutant): 6 µg/mL
C[C@H]1COc2c(N3CCN(C)CC3)c(F)cc3c(=O)c(C(=O)O)cn1c23 [Levofloxacin, levofloxacin] | 0.5 | 0.5 | 0.06 | 0.125 | 0.5 | 0.5 | 8 | 0.5 | 0.5 | 1 | 8 | 2 | 0.5 | 0.5 | 8 | 1 | 0.5 | 0.5 | 4 | 1 | MIC ([1]; ΔramR mutant): 1 µg/mL; MIC ([1]; ΔramR/S83I mutant): 16 µg/mL; MIC ([1]; ΔramR/S83I/D87N/S80I mutant): > 32 µg/mL; MIC ([1]; ΔramR/S83I/S801 mutant): > 32 µg/mL; MIC ([2]; E84K mutant): 0.19 µg/mL; MIC ([2]; G78C mutant): 0.19 µg/mL; MIC ([2]; KW1, read-out: MIC): 0.19 µg/mL; MIC ([2]; S80L mutant): 0.19 µg/mL; MIC ([2]; S80W mutant): 0.19 µg/mL; MIC ([2]; S80Y mutant): 0.19 µg/mL; MIC ([2]; S83L mutant): 1 µg/mL; MIC ([2]; S83L/E84K mutant): > 32 µg/mL; MIC ([2]; S83L/G78C mutant): 32 µg/mL; MIC ([2]; S83L/S80L mutant): > 32 µg/mL; MIC ([2]; S83L/S80W mutant): > 32 µg/mL; MIC ([2]; S83L/S80Y mutant): > 32 µg/mL
CO/N=C(\C(=O)N[C@@H]1C(=O)N2C(C(=O)O)=C(COC(C)=O)CS[C@H]12)c1csc(N)n1 [Cefotaxime] |  |  |  |  |  |  |  |  |  |  |  |  |  |  |  |  |  |  |  |  | MIC [4]: 2 µg/mL (≈ 4.39 µM); survival of mice [5]: no mice survived
CC1COc2c(N3CCN(C)CC3)c(F)cc3c(=O)c(C(=O)O)cn1c23 (stereo not drawn) [Ofloxacin, ofloxacin] | 1 | 1 | 0.25 | 0.25 | 2 | 2 | 16 | 2 | 2 | 2 | 32 | 4 | 2 | 2 | 32 | 4 | 2 | 2 | 16 | 2 | MIC ([1]; ΔramR mutant): 2 µg/mL; MIC ([1]; ΔramR/S83I mutant): > 32 µg/mL; MIC ([1]; ΔramR/S83I/D87N/S80I mutant): > 32 µg/mL; MIC ([1]; ΔramR/S83I/S801 mutant): > 32 µg/mL; MIC ([2]; E84K mutant): 0.38 µg/mL; MIC ([2]; G78C mutant): 0.38 µg/mL; MIC ([2]; KW1, read-out: MIC): 0.38 µg/mL; MIC ([2]; S80L mutant): 0.5 µg/mL; MIC ([2]; S80W mutant): 0.5 µg/mL; MIC ([2]; S80Y mutant): 0.38 µg/mL; MIC ([2]; S83L mutant): 6 µg/mL; MIC ([2]; S83L/E84K mutant): > 32 µg/mL; MIC ([2]; S83L/G78C mutant): 32 µg/mL; MIC ([2]; S83L/S80L mutant): > 32 µg/mL; MIC ([2]; S83L/S80W mutant): > 32 µg/mL; MIC ([2]; S83L/S80Y mutant): > 32 µg/mL
CCn1cc(C(=O)O)c(=O)c2cc(F)c(N3CCNCC3)cc21 [Norfloxacin, norfloxacin] | 2 | 2 | 0.25 | 0.25 | 2 | 2 | 32 | 8 | 2 | 2 | 64 | 16 | 2 | 2 | 64 | 8 | 2 | 2 | 32 | 8 | MIC ([1]; ΔramR mutant): 2 µg/mL; MIC ([1]; ΔramR/S83I mutant): 8 µg/mL; MIC ([1]; ΔramR/S83I/D87N/S80I mutant): > 256 µg/mL; MIC ([1]; ΔramR/S83I/S801 mutant): 128 µg/mL; MIC ([2]; E84K mutant): 4 µg/mL; MIC ([2]; G78C mutant): 4 µg/mL; MIC ([2]; KW1, read-out: MIC): 4 µg/mL; MIC ([2]; S80L mutant): 4 µg/mL; MIC ([2]; S80W mutant): 6 µg/mL; MIC ([2]; S80Y mutant): 4 µg/mL; MIC ([2]; S83L mutant): 24 µg/mL; MIC ([2]; S83L/E84K mutant): > 256 µg/mL; MIC ([2]; S83L/G78C mutant): > 256 µg/mL; MIC ([2]; S83L/S80L mutant): > 256 µg/mL; MIC ([2]; S83L/S80W mutant): > 256 µg/mL; MIC ([2]; S83L/S80Y mutant): > 256 µg/mL
